In the NIST ThermoML archive (doi:10.1021/acs.jced.8b00812):

Conditions: Liquid; for viscosity: Capillary tube (Ostwald / Ubbelohde) method; for mass density: Vibrating tube method

CCCCCO [pentan-1-ol]
Conditions	mass density [kg/m3]	viscosity [mPa·s]
298.15 K, 2000 kPa	813	3.59
298.15 K, 4000 kPa	814.4	3.66
298.15 K, 6000 kPa	815.8	3.732
298.15 K, 8010 kPa	817.1	3.796
298.15 K, 10000 kPa	818.5	3.869
298.15 K, 13000 kPa	820.4	3.975
298.15 K, 16000 kPa	822.3	4.081
298.15 K, 19010 kPa	824.1	4.192
298.15 K, 22000 kPa	825.9	4.299
298.15 K, 25000 kPa	827.6	4.409
298.15 K, 27990 kPa	829.4	4.507
298.15 K, 29980 kPa	830.4	4.577
303.15 K, 19000 kPa	820.3	3.757
303.15 K, 27980 kPa	825.6	4.041
303.16 K, 1980 kPa	808.8	3.219
303.16 K, 3980 kPa	810.2	3.282
303.16 K, 6010 kPa	811.7	3.346
303.16 K, 8020 kPa	813	3.41
303.16 K, 10030 kPa	814.4	3.474
303.16 K, 12990 kPa	816.4	3.567
303.16 K, 15980 kPa	818.4	3.662
303.16 K, 22010 kPa	822.1	3.852
303.16 K, 25000 kPa	823.9	3.947
303.16 K, 29990 kPa	826.7	4.105
313.15 K, 1990 kPa	800.6	2.438
313.15 K, 4000 kPa	802.2	2.486
313.15 K, 5980 kPa	803.7	2.533
313.15 K, 7980 kPa	805.1	2.581
313.15 K, 10020 kPa	806.6	2.629
313.15 K, 13010 kPa	808.7	2.701
313.15 K, 19020 kPa	812.8	2.845
313.15 K, 21980 kPa	814.7	2.916
313.15 K, 30020 kPa	819.6	3.109
313.16 K, 15980 kPa	810.8	2.772
313.16 K, 24990 kPa	816.6	2.988
313.16 K, 28000 kPa	818.4	3.06
323.15 K, 2000 kPa	793.5	1.833
323.15 K, 4000 kPa	795	1.866
323.15 K, 6000 kPa	796.7	1.901
323.15 K, 8000 kPa	798.2	1.935
323.15 K, 10000 kPa	799.6	1.969
323.15 K, 13000 kPa	801.9	2.022
323.15 K, 16000 kPa	804	2.078
323.15 K, 19000 kPa	806.1	2.133
323.15 K, 22000 kPa	808.2	2.189
323.15 K, 25000 kPa	810.2	2.244
323.15 K, 27990 kPa	812.1	2.299
323.15 K, 29990 kPa	813.4	2.335

CCCCCCCO [heptan-1-ol]
Conditions	mass density [kg/m3]	viscosity [mPa·s]
298.15 K, 2000 kPa	820.2	5.971
298.15 K, 4020 kPa	821.4	6.1
298.15 K, 6010 kPa	822.8	6.229
298.15 K, 8000 kPa	824	6.364
298.15 K, 10000 kPa	825.3	6.484
298.15 K, 13000 kPa	827.1	6.686
298.15 K, 16000 kPa	828.9	6.881
298.15 K, 19000 kPa	830.7	7.084
298.15 K, 22000 kPa	832.5	7.293
298.15 K, 25000 kPa	834.2	7.516
298.15 K, 28000 kPa	835.9	7.72
298.15 K, 29990 kPa	836.9	7.864
303.16 K, 2030 kPa	816.5	5.186
303.16 K, 4030 kPa	817.9	5.302
303.16 K, 6040 kPa	819.3	5.42
303.16 K, 7980 kPa	820.5	5.534
303.16 K, 9990 kPa	821.8	5.651
303.16 K, 12990 kPa	823.6	5.826
303.16 K, 16020 kPa	825.5	6.004
303.16 K, 19020 kPa	827.3	6.179
303.16 K, 22000 kPa	829.2	6.353
303.16 K, 24980 kPa	830.9	6.527
303.16 K, 27980 kPa	832.5	6.703
303.16 K, 30010 kPa	833.7	6.822
313.15 K, 2000 kPa	809.2	3.763
313.15 K, 4000 kPa	810.6	3.848
313.15 K, 5980 kPa	811.9	3.932
313.15 K, 7980 kPa	813.3	4.017
313.15 K, 9970 kPa	814.6	4.101
313.15 K, 13030 kPa	816.5	4.231
313.15 K, 16020 kPa	818.4	4.358
313.15 K, 19000 kPa	820.4	4.484
313.15 K, 22020 kPa	822.2	4.613
313.15 K, 25010 kPa	824	4.739
313.15 K, 27980 kPa	825.7	4.865
313.15 K, 30010 kPa	826.9	4.952
323.15 K, 1990 kPa	802.1	2.748
323.15 K, 4010 kPa	803.4	2.812
323.15 K, 5990 kPa	804.8	2.876
323.15 K, 8010 kPa	806.2	2.94
323.15 K, 10010 kPa	807.6	2.997
323.15 K, 13000 kPa	809.7	3.088
323.15 K, 16000 kPa	811.8	3.179
323.15 K, 18990 kPa	813.7	3.266
323.15 K, 22000 kPa	815.6	3.358
323.15 K, 25000 kPa	817.4	3.451
323.15 K, 28000 kPa	819.3	3.542
323.15 K, 30000 kPa	820.5	3.607

CCCCO [butan-1-ol]
Conditions	mass density [kg/m3]	viscosity [mPa·s]
298.12 K, 2010 kPa	806.8	2.608
298.12 K, 3910 kPa	808.2	2.657
298.12 K, 6020 kPa	809.8	2.708
298.12 K, 8030 kPa	811.2	2.752
298.12 K, 9910 kPa	812.5	2.797
298.12 K, 16020 kPa	816.6	2.94
298.12 K, 19030 kPa	818.5	3.018
298.12 K, 22000 kPa	820.4	3.092
298.12 K, 25020 kPa	822.3	3.166
298.12 K, 28000 kPa	824	3.237
298.12 K, 30010 kPa	825.1	3.287
298.13 K, 13010 kPa	814.6	2.867
303.15 K, 2010 kPa	803.3	2.351
303.15 K, 4000 kPa	804.8	2.393
303.15 K, 5980 kPa	806.3	2.436
303.15 K, 8010 kPa	807.8	2.479
303.15 K, 9990 kPa	809.2	2.522
303.15 K, 12990 kPa	811.3	2.586
303.15 K, 15990 kPa	813.3	2.65
303.15 K, 22010 kPa	817.3	2.779
303.15 K, 25010 kPa	819.1	2.843
303.15 K, 27970 kPa	820.9	2.912
303.15 K, 29990 kPa	822.1	2.957
303.16 K, 19000 kPa	815.3	2.714
313.15 K, 10020 kPa	801.8	1.969
313.15 K, 12980 kPa	803.9	2.019
313.15 K, 22020 kPa	810.2	2.182
313.15 K, 25010 kPa	812.2	2.237
313.16 K, 1990 kPa	795.5	1.832
313.16 K, 3980 kPa	797.1	1.868
313.16 K, 5990 kPa	798.7	1.902
313.16 K, 7980 kPa	800.2	1.935
313.16 K, 15980 kPa	806.1	2.073
313.16 K, 19010 kPa	808.2	2.125
313.16 K, 27990 kPa	814.1	2.292
313.16 K, 29990 kPa	815.3	2.329
323.14 K, 2000 kPa	787.9	1.421
323.14 K, 3920 kPa	789.6	1.446
323.14 K, 6030 kPa	791.3	1.473
323.14 K, 8000 kPa	792.9	1.499
323.14 K, 10020 kPa	794.5	1.525
323.14 K, 13040 kPa	796.9	1.565
323.14 K, 16050 kPa	799.2	1.603
323.14 K, 19000 kPa	801.3	1.646
323.14 K, 21990 kPa	803.4	1.684
323.14 K, 24970 kPa	805.5	1.723
323.14 K, 28000 kPa	807.5	1.759
323.14 K, 29970 kPa	808.8	1.785
